This is an account of results in patent US8309556B2, “Use of compounds derived from pyrimidinetrione as acetyl cholinesterase inhibitors, compositions containing said derivatives, and the uses thereof” (priority 2005, dated 2012).

The subject of test [1] is larvae of mosquitoes Culex pipiens resistant to propoxur. Nature of the test: Insecticidal activity: larval mortality, propoxur-resistant larvae. In kind it is in vivo. To be noted: for LC50: Culex pipiens, stage-4 larvae, mortality after 24 hours, log-Probit, read-out: LD50, Resistant larvae; for Sensitive/resistant ratio: LD50 larval mortality, sensitive relative to resistant. The method, then:
(§1) The insecticidal activity of the compounds according to the invention denoted in table IV below is tested on larvae of mosquitoes Culex pipiens sensitive or resistant to the action of propoxur.
(§2) The larvae resistant or sensitive to propoxur are incubated in 24-well plates, at the rate of 15 stage-4 larvae per well, in 1 ml of tap water comprising different concentrations of compounds ranging from 0.31 to 50 μg/ml.
(§3) Larval mortality is measured after incubating for 24 hours. […] Cahiers ORSTOM, série Entomologie médicale et Parasitologie, 23(2), 117-121; Raymond, M., Prato, G. and Ratsira, D. (1993). PROBIT, CNRS-UMII, Licence L93019. Avenix, 34680 St. Georges d'Orques, France.), the homogeneity of the dose/response being tested. The effectiveness of the different compounds with regard to the resistant larvae, relative to the sensitive larvae, is estimated by the sensitive/resistant ratio.

Test [2] has as its target T1, AChE1 activity of extracts of Culex pipiens larvae sensitive to propoxur (normal AChE) (Culex pipiens, UniProt Q86GC8).
T1 construct: from tissue; host or cells: whole larvae of propoxur-sensitive Culex pipiens, Triton X100 homogenate supernatant
Put plainly: Inhibition of AChE1 activity in extracts of propoxur-sensitive mosquito larvae. In kind it is biochemical. To be noted: extracts of propoxur-sensitive larvae, 15 minutes incubation; read-out: IC50, Sensitive larvae. As to the method: (§4) The inhibitory properties of the compounds of the preceding table I are tested with regard to the AChE activity by either using a normal or G119S-mutated recombinant AChE or using extracts of larvae of mosquitoes which are sensitive (carrying normal AChE) or resistant (carrying G119S-mutated AChE) to organophosphorus compounds and carbamates.
(§5) The AChE activity is measured using the method described by Bourguet et al., Pest Biochem. Physiol., 1996, 55, 122-128, and which refers to the spectroscopic method described by Ellman G. L. et al. (Biochem. Pharmacol., 1961, 7, 88-95) using acetylthiocholine as substrate.
(§6) Larvae of Culex pipiens mosquitoes which are sensitive or resistant to propoxur are milled in 400 μl of 0.25M phosphate buffer comprising 1% Triton X100. The homogenates are centrifuged at 10 000 rpm for 3 minutes.
(§7) The effectiveness of the various compounds with regard to the resistant larvae, relative to the sensitive larvae, is estimated by the sensitive/resistant ratio.

The target in test [3] is T2, normal recombinant Culex pipiens AChE1 (Culex pipiens, UniProt Q86GC8).
T2 construct: made in house; host or cells: Drosophila S2 cells (crude lysate supernatant)
Put plainly: Inhibition of normal recombinant AChE1 (lysates of transfected Drosophile S2 cells, Ellman method). In kind it is biochemical. As to the method:
as §4, §5
(§8) The inhibitory properties of the compounds according to the invention with regard to the activity of a G119S-mutated or normal recombinant Culex pipiens AChE1 are tested according to protocol described by Weill et al., Nature, 2003, 423, 136-137.
(§9) Each compound according to the invention is tested at different concentrations on lysates of Drosophile S2 cells transfected with an empty expression vector or an expression vector expressing normal or mutated AChE1. After expression, the cells are centrifuged for 15 minutes at 14 000 rpm and are subsequently lysed in a 0.25 M phosphate buffer comprising 1% Triton X100.
(§10) 100 μl of supernatant originating from the centrifuging of the cell lysates at 10 000 rpm for 3 minutes are incubated for 15 minutes with 10 μl of each compound according to the invention at various concentrations.
(§11) The effectiveness of the various compounds with regard to the mutated AChE activity, relative to that of the normal AChE, is estimated by the sensitive/insensitive ratio.

Test [4] deals with G119S-mutated recombinant Culex pipiens AChE1. Nature of the test: biochemical. To be noted: IC50 normal AChE1 relative to mutated AChE1, recombinant. The method, then: as §4, §5, §8, §9, §10, §11
Test [5] has as its target T3, G119S-mutated recombinant Culex pipiens AChE1 (Culex pipiens, UniProt Q86GC8, G247S).
T3 construct: made in house; host or cells: Drosophila S2 cells (crude lysate supernatant)
Nature of the test: biochemical. The method, then: as §4, §5, §8, §9, §10, §11

Test [6] concerns larvae of mosquitoes Culex pipiens sensitive to propoxur. Put plainly: Insecticidal activity: larval mortality, propoxur-sensitive larvae. In kind it is in vivo. The settings on record: stage-4 larvae, mortality after 24 hours, log-Probit, read-out: LD50, Sensitive larvae. The method, then:
as §1, §2, §3

Test [7] has as its target T4, AChE1 activity of extracts of Culex pipiens larvae resistant to propoxur (G119S-mutated AChE) (Culex pipiens, UniProt Q86GC8, G247S).
T4 construct: from tissue; host or cells: whole larvae of propoxur-resistant Culex pipiens, Triton X100 homogenate supernatant
Put plainly: biochemical. The method, then:
as §4, §5, §6, §7

Test [8] concerns AChE1 activity of extracts of Culex pipiens larvae resistant to propoxur (G119S-mutated AChE). Put plainly: biochemical. The settings on record: IC50 on larval extracts, sensitive relative to resistant. The method, then: as §4, §5, §6, §7

For `Cc1ccc(C=C2C(=O)NC(=O)N(c3ccccc3)C2=O)o1` [(1), 5-[(5-methyl-2-furyl)methylene]-1-phenyl-2,4,6(1H,3H,5H)-pyrimidinetrione], the figures for the LC50 in test [1] and in test [6] were 143 µM and 310 µM, respectively. The Sensitive/resistant ratio in test [1] was determined as 2.2; in test [8] it was 4.7. The half-maximal inhibitory concentration (IC50) was 29.4 µM in test [2], 34 µM in test [3], 23 µM in test [5] and 6.2 µM in test [7]. For the same molecule, in test [4], the Sensitive/insensitive ratio was found to be 1.47.

Take `Cc1cccc(N2C(=O)NC(=O)C(=Cc3ccc(C)s3)C2=O)c1` [(2), 1-(3-methylphenyl)-5-[(5-methyl-2-thienyl)methylene]-2,4,6(1H,3H,5H)-pyrimidinetrione]: the LC50 in test [1] was determined as 170 µM; in test [6] it was 455 µM. Moreover, the Sensitive/resistant ratio in test [1] came out at 2.7; in test [8], 15.5. For the same molecule, the half-inhibitory concentration (IC50) in test [2] was 442 µM; in test [3], 39 µM; in test [5], 43 µM; in test [7], 28 µM. Further, in test [4], the Sensitive/insensitive ratio is recorded as 0.90.

Consider `Cc1ccc(C=C2C(=O)NC(=O)N(c3ccc(C(C)C)cc3)C2=O)o1` [(7), 1-(4-isopropylphenyl)-5-[(5-methyl-2-furyl)methylene]-2,4,6(1H,3H,5H)-pyrimidinetrione], for which the IC50 in test [2] turned out to be 132 µM; in test [3], 128 µM; in test [5], 72 µM; in test [7], 21 µM. Besides, the Sensitive/insensitive ratio in test [4] amounted to 1.78. Moreover, the Sensitive/resistant ratio in test [8] is given as 6.1.

In the case of `O=C1NC(=O)N(c2ccccc2)C(=O)C1=Cc1ccco1` [(9), 5-(2-furylmethylene)-1-phenyl-2,4,6(1H,3H,5H)-pyrimidinetrione], the IC50 was determined as 1390 µM in test [3] and 737 µM in test [5]. Besides, the Sensitive/insensitive ratio in test [4] stood at 1.89.

In the case of `CN1C(=O)C(=Cc2ccco2)C(=O)N(C)C1=O` [(10), 5-(2-furylmethylene)-1,3-dimethyl-2,4,6(1H,3H,5H)-pyrimidinetrione], the IC50 in test [3] is 1190 µM; in test [5] it was 357 µM. Moreover, in test [4], the Sensitive/insensitive ratio stood at 3.34.

Take `Cc1ccc(N2C(=O)NC(=O)C(=Cc3ccc(C)o3)C2=O)cc1` [(11), 5-[(5-methyl-2-furyl)methylene]-1-(4-methylphenyl)-2,4,6(1H,3H,5H)-pyrimidinetrione]: the IC50 in test [2] is 111 µM; in test [3], 4.5 µM; in test [5], 3.5 µM; in test [7], 14 µM. Further, in test [4], the Sensitive/insensitive ratio turned out to be 1.27. The Sensitive/resistant ratio in test [8] is listed as 7.7.

As to `COc1cccc(N2C(=O)NC(=O)C(=Cc3ccc(C)o3)C2=O)c1` [(12), 1-(3-methoxyphenyl)-5-[(5-methyl-2-furyl)methylene]-2,4,6(1H,3H,5H)-pyrimidinetrione], the half-maximal inhibitory concentration (IC50) in test [2] turned out to be 54 µM; in test [3], 3.4 µM; in test [5] it was 3.5 µM; in test [7], 6 µM. Besides, the Sensitive/insensitive ratio in test [4] is on record as 0.96. The Sensitive/resistant ratio in test [8] is 8.5.

In the case of `CCOc1ccc(N2C(=O)NC(=O)C(=Cc3ccc(C)o3)C2=O)cc1` [(13), 1-(4-ethoxyphenyl)-5-[(5-methyl-2-furyl)methylene]-2,4,6(1H,3H,5H)-pyrimidinetrione], the concentration for half-maximal inhibition (IC50) in test [2] amounted to 236 µM; in test [3], 7.1 µM; in test [5], 2.9 µM; in test [7] it was 89 µM. Also, in test [4], the Sensitive/insensitive ratio is 2.40. Also, in test [8], the Sensitive/resistant ratio was determined as 2.7.

Regarding `Cc1ccc(C=C2C(=O)NC(=O)N(c3ccc(Br)cc3)C2=O)s1` [(14), 1-(4-bromophenyl)-5-[(5-methyl-2-thienyl)methylene]-2,4,6(1H,3H,5H)-pyrimidinetrione], the IC50 in test [2] amounted to 2120 µM; in test [3] it was 9.6 µM; in test [5], 11.1 µM; in test [7] it was 142 µM. In test [4], the Sensitive/insensitive ratio worked out at 0.87. Also, the Sensitive/resistant ratio in test [8] is listed as 15.0.

As to `Cc1ccc(C=C2C(=O)NC(=O)N(c3ccc(Cl)cc3)C2=O)s1` [(15), 1-(4-chlorophenyl)-5-[(5-methyl-2-thienyl)methylene]-2,4,6(1H,3H,5H)-pyrimidinetrione], the IC50 turned out to be 1220 µM in test [2], 8.7 µM in test [3], 8.7 µM in test [5] and 177 µM in test [7]. Also, the Sensitive/insensitive ratio in test [4] was determined as 1.00. Moreover, in test [8], the Sensitive/resistant ratio was determined as 6.9.

Take `Cc1ccc(C=C2C(=O)NC(=O)N(c3ccc(F)cc3)C2=O)s1` [(16), 1-(4-fluorophenyl)-5-[(5-methyl-2-thienyl)methylene]-2,4,6(1H,3H,5H)-pyrimidinetrione]: the IC50 in test [2] came to 490 µM; in test [3], 17.1 µM; in test [5], 8.6 µM; in test [7], 22 µM. Besides, the Sensitive/insensitive ratio in test [4] came out at 1.99. Moreover, the Sensitive/resistant ratio in test [8] came to 22.5.

For `Cc1ccc(C=C2C(=O)NC(=O)N(c3ccc(C)c(C)c3)C2=O)o1` [(17), 1-(3,4-dimethylphenyl)-5-[(5-methyl-2-furyl)methylene]-2,4,6(1H,3H,5H)-pyrimidinetrione], the IC50 is 424 µM in test [2], 15.7 µM in test [3], 8.5 µM in test [5] and 35 µM in test [7]. In addition, in test [4], the Sensitive/insensitive ratio stood at 1.85. For the same molecule, in test [8], the Sensitive/resistant ratio amounted to 12.2.

Turning to `Cc1ccc(C=C2C(=O)NC(=O)N(Cc3ccco3)C2=O)o1` [(18), 1-(2-furylmethyl)-5-[(5-methyl-2-furyl)methylene]-2,4,6(1H,3H,5H)-pyrimidinetrione], the concentration for half-maximal inhibition (IC50) in test [2] was 260 µM; in test [3], 10.1 µM; in test [5] it was 4.8 µM; in test [7], 37 µM. Further, the Sensitive/insensitive ratio in test [4] turned out to be 2.10. In addition, the Sensitive/resistant ratio in test [8] was 7.1.

Regarding `CCc1ccc(N2C(=O)NC(=O)C(=Cc3ccc(C)o3)C2=O)cc1` [(19), 1-(4-ethylphenyl)-5-[(5-methyl-2-furyl)methylene]-2,4,6(1H,3H,5H)-pyrimidinetrione], the half-inhibitory concentration (IC50) in test [2] amounted to 312 µM; in test [3], 1.9 µM; in test [5], 3.4 µM; in test [7], 19 µM. The Sensitive/insensitive ratio in test [4] amounted to 0.58. Further, the Sensitive/resistant ratio in test [8] is 16.7.

Turning to `CCCCN1C(=O)NC(=O)C(=Cc2ccc(C)s2)C1=O` [(20), 1-butyl-5-[(5-methyl-2-thienyl)methylene]-2,4,6(1H,3H,5H)-pyrimidinetrione], the half-maximal inhibitory concentration (IC50) in test [2] came to 153 µM; in test [3], 12.1 µM; in test [5] it was 15.5 µM; in test [7], 152 µM. In addition, in test [4], the Sensitive/insensitive ratio is on record as 0.78. Moreover, the Sensitive/resistant ratio in test [8] stood at 1.0.

For orientation: IC50 means the concentration at which inhibition is half-maximal.
